Results from patent publication US9670227B2, “Thienopyrimidine derivatives, a process for their preparation and pharmaceutical compositions containing them” (LES LABORATOIRES SERVIER, priority 2013, dated 2017).
Read-outs that look alike come from different tables or passages of the source.

Legend:
[1] = tested on: H929 multiple myeloma tumour line; assay: In vitro cytotoxicity, Microculture Tetrazolium Assay; type: cell-based; settings: H929 cells, 48 hours exposure, MTT, read-out: IC50 (μM) MTT H929
Procedure: The cytotoxicity studies were carried out on the H929 multiple myeloma tumour line.
The cells are distributed onto microplates and exposed to the test compounds for 48 hours.

Mcl-1 protein = Mcl-1 protein (UniProtKB primary accession number: Q07820) (Homo sapiens, UniProt Q07820); assay: Inhibition of Mcl-1 by fluorescence polarisation, Method 1; type: binding; settings: fluorescence polarisation; Method 1, or Method 2; read-out: IC50 (M) Mcl-1 FP
Chain of Mcl-1 protein (Q07820 whole entry): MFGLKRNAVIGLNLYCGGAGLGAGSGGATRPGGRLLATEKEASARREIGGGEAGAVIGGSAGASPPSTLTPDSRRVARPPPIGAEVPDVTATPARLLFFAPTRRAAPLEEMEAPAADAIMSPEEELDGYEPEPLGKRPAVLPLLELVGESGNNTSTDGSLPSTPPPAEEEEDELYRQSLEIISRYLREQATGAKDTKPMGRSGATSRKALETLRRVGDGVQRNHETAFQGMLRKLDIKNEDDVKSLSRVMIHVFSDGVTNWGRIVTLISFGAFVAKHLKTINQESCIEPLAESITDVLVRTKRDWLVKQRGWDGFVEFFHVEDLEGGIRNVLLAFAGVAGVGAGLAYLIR
How it was run: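 Fluorescence polarisation competition with an 11-point compound dilution series (final DMSO 5%). Mcl-1 protein at 5 nM and fluorescein-labelled ligand at 1 nM (final) in 10 mM HEPES, 150 mM NaCl, 0.05% Tween 20, pH 7.4.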

Row | Compound | IC50 ([1]; Homo sapiens, NCI-H929, 48 h) [µM] | IC50 (Mcl-1 protein) [M] | IC50 [1] [µM]
1 | CCc1sc2ncnc(OC(Cc3ccccc3OCc3ccnc(OC)n3)C(=O)O)c2c1-c1ccc(OCCN2CCN(C)CC2)c(Cl)c1C [Example 455, (2R)-2-[((5Sa)-5-{3-chloro-2-methyl-4-[2-(4-methylpiperazin-1-yl)ethoxy]phenyl}-6-ethylthieno[2,3-d]pyrimidin-4-yl)oxy]-3-{2-[(2-methoxypyrimidin-4-yl)methoxy]phenyl}propanoic acid] | 0.339 | 6.2e-09 | 
2 | CCc1sc2ncnc(OC(Cc3ccccc3OCc3ccnn3CC)C(=O)O)c2c1-c1ccc(OCCN2CCN(C)CC2)c(Cl)c1C [Example 456, (2R)-2-[((5Sa)-5-{3-chloro-2-methyl-4-[2-(4-methylpiperazin-1-yl)ethoxy]phenyl}-6-ethylthieno[2,3-d]pyrimidin-4-yl)oxy]-3-{2-[(1-ethyl-1H-pyrazol-5-yl)methoxy]phenyl}propanoic acid] | 0.513 | 8e-09 | 
3 | CCc1sc2ncnc(OC(Cc3cccc4c3OCO4)C(=O)O)c2c1-c1ccc(OCCN2CCN(C)CC2)c(Cl)c1C [Example 460, (2R)-3-(1,3-benzodioxol-4-yl)-2-[((5Sa)-5-{3-chloro-2-methyl-4-[2-(4-methylpiperazin-1-yl)ethoxy]phenyl}-6-ethylthieno[2,3-d]pyrimidin-4-yl)oxy]propanoic acid] | 6.82 | 1.3e-07 | 
4 | CCc1sc2ncnc(OC(Cc3cccc4ccoc34)C(=O)O)c2c1-c1ccc(OCCN2CCN(C)CC2)c(Cl)c1C [Example 461, (2R)-3-(1-benzofuran-7-yl)-2-[((5Sa)-5-{3-chloro-2-methyl-4-[2-(4-methylpiperazin-1-yl)ethoxy]phenyl}-6-ethylthieno[2,3-d]pyrimidin-4-yl)oxy]propanoic acid] | 4.86 | 8.5e-08 | 
5 | CCc1sc2ncnc(OC(Cc3ccccc3F)C(=O)O)c2c1-c1ccc(OCCN2CCN(C)CC2)c(Cl)c1C [Example 463, (2R)-2-[((5Sa)-5-{3-chloro-2-methyl-4-[2-(4-methylpiperazin-1-yl)ethoxy]phenyl}-6-ethylthieno[2,3-d]pyrimidin-4-yl)oxy]-3-(2-fluorophenyl)propanoic acid] | 5.11 | 4.6e-08 | 
6 | CC#Cc1sc2ncnc(OC(Cc3ccccc3OC)C(=O)O)c2c1-c1ccc(OCCC2CCN(C)CC2)c(Cl)c1C [Example 465, (2R)-2-{[(5Sa)-5-{3-chloro-2-methyl-4-[2-(1-methylpiperidin-4-yl)ethoxy]phenyl}-6-(prop-1-yn-1-yl)thieno[2,3-d]pyrimidin-4-yl]oxy}-3-(2-methoxyphenyl)propanoic acid] | 2.06 | 2.5e-08 | 
7 | CC#Cc1sc2ncnc(OC(Cc3ccccc3OC)C(=O)O)c2c1-c1ccc(OCCN(C(C)C)C(C)C)c(Cl)c1C [Example 466, (2R)-2-{[(5Sa)-5-(3-chloro-4-{2-[di(propan-2-yl)amino]ethoxy}-2-methylphenyl)-6-(prop-1-yn-1-yl)thieno[2,3-d]pyrimidin-4-yl]oxy}-3-(2-methoxyphenyl)propanoic acid] | 3.35 | 3.9e-08 | 
8 | CC#Cc1sc2ncnc(OC(Cc3ccccc3OC)C(=O)O)c2c1-c1ccc(OCCN(C)C)c(Cl)c1C [Example 467, (2R)-2-{[(5Sa)-5-{3-chloro-4-[2-(dimethylamino)ethoxy]-2-methylphenyl}-6-(prop-1-yn-1-yl)thieno[2,3-d]pyrimidin-4-yl]oxy}-3-(2-methoxyphenyl)propanoic acid] | 0.502 | 1.1e-08 | 
9 | CC#Cc1sc2ncnc(OC(Cc3ccccc3OC)C(=O)O)c2c1-c1ccc(OCCN2CCCC2)c(Cl)c1C [Example 468, (2R)-2-{[(5Sa)-5-{3-chloro-2-methyl-4-[2-(pyrrolidin-1-yl)ethoxy]phenyl}-6-(prop-1-yn-1-yl)thieno[2,3-d]pyrimidin-4-yl]oxy}-3-(2-methoxyphenyl)propanoic acid] | 2.02 | 8.6e-09 | 
10 | CC#Cc1sc2ncnc(OC(Cc3ccccc3OC)C(=O)O)c2c1-c1ccc(OCCN2CCCCC2)c(Cl)c1C [Example 469, (2R)-2-{[(5Sa)-5-{3-chloro-2-methyl-4-[2-(piperidin-1-yl)ethoxy]phenyl}-6-(prop-1-yn-1-yl)thieno[2,3-d]pyrimidin-4-yl]oxy}-3-(2-methoxyphenyl)propanoic acid] | 3.06 | 1.5e-08 | 
11 | CC#Cc1sc2ncnc(O[C@H](Cc3ccccc3OC)C(=O)O)c2c1-c1cc(C)c(OCCN2CCN(C)CC2)c(Cl)c1C [Example 475, (2R)-2-{[(5Sa)-5-{3-chloro-2,5-dimethyl-4-[2-(4-methylpiperazin-1-yl)ethoxy]phenyl}-6-(prop-1-yn-1-yl)thieno[2,3-d]pyrimidin-4-yl]oxy}-3-(2-methoxyphenyl)propanoic acid] |  | 6.8e-09 | 1.12
12 | CC#Cc1sc2ncnc(OC(Cc3ccccc3OC)C(=O)O)c2c1-c1cc(F)c(OCCN2CCN(C)CC2)c(Cl)c1C [Example 476, (2R)-2-{[(5Sa)-5-{3-chloro-5-fluoro-2-methyl-4-[2-(4-methylpiperazin-1-yl)ethoxy]phenyl}-6-(prop-1-yn-1-yl)thieno[2,3-d]pyrimidin-4-yl]oxy}-3-(2-methoxyphenyl)propanoic acid] | 1.03 | 2e-08 | 
13 | CC#Cc1sc2ncnc(OC(Cc3ccccc3OC)C(=O)O)c2c1-c1cc(OC)c(OCCN2CCN(C)CC2)c(Cl)c1C [Example 477, (2R)-2-{[(5Sa)-5-{3-chloro-5-methoxy-2-methyl-4-[2-(4-methylpiperazin-1-yl)ethoxy]phenyl}-6-(prop-1-yn-1-yl)thieno[2,3-d]pyrimidin-4-yl]oxy}-3-(2-methoxyphenyl)propanoic acid] | 2.57 | 5.6e-08 | 
14 | CC#Cc1sc2ncnc(OC(Cc3ccccc3OCC)C(=O)O)c2c1-c1ccc(OCCN2CCN(C)CC2)c(Cl)c1C [Example 481, (2R)-2-{[(5Sa)-5-{3-chloro-2-methyl-4-[2-(4-methylpiperazin-1-yl)ethoxy]phenyl}-6-(prop-1-yn-1-yl)thieno[2,3-d]pyrimidin-4-yl]oxy}-3-(2-ethoxyphenyl)propanoic acid] | 0.643 | 5.4e-09 | 
15 | CC#Cc1sc2ncnc(OC(Cc3ccccc3OCc3ccnc(CCOC)n3)C(=O)O)c2c1-c1ccc(OCCN2CCN(C)CC2)c(Cl)c1C [Example 484, (2R)-2-{[(5Sa)-5-{3-chloro-2-methyl-4-[2-(4-methylpiperazin-1-yl)ethoxy]phenyl}-6-(prop-1-yn-1-yl)thieno[2,3-d]pyrimidin-4-yl]oxy}-3-(2-{[2-(2-methoxyethyl)pyrimidin-4-yl]methoxy}phenyl)propanoic acid] | 0.014 | 3.4e-09 | 
16 | CC#Cc1sc2ncnc(OC(Cc3ccccc3OCc3ccnc(OC)n3)C(=O)O)c2c1-c1ccc(OCCN2CCN(C)CC2)c(Cl)c1C [Example 486, (2R)-2-{[(5Sa)-5-{3-chloro-2-methyl-4-[2-(4-methylpiperazin-1-yl)ethoxy]phenyl}-6-(prop-1-yn-1-yl)thieno[2,3-d]pyrimidin-4-yl]oxy}-3-{2-[(2-methoxypyrimidin-4-yl)methoxy]phenyl}propanoic acid] | 0.146 | 1.9e-09 | 
17 | CC#Cc1sc2ncnc(OC(Cc3cccc4occc34)C(=O)O)c2c1-c1ccc(OCCN2CCN(C)CC2)c(Cl)c1C [Example 492, (2R)-3-(1-benzofuran-4-yl)-2-{[(5Sa)-5-{3-chloro-2-methyl-4-[2-(4-methylpiperazin-1-yl)ethoxy]phenyl}-6-(prop-1-yn-1-yl)thieno[2,3-d]pyrimidin-4-yl]oxy}propanoic acid] | 2.19 | 9e-08 | 
18 | Cc1csc(-c2sc3ncnc(OC(Cc4ccccc4)C(=O)O)c3c2-c2ccc(OCCN3CCN(C)CC3)c(Cl)c2C)c1 [Example 495, (2R)-2-{[(5Sa)-5-{3-chloro-2-methyl-4-[2-(4-methylpiperazin-1-yl)ethoxy]phenyl}-6-(4-methylthiophen-2-yl)thieno[2,3-d]pyrimidin-4-yl]oxy}-3-phenylpropanoic acid] | 1.19 | 3.6e-08 | 
19 | Cc1c(-c2c(-c3cc4ccccc4s3)sc3ncnc(OC(Cc4ccccc4)C(=O)O)c23)ccc(OCCN2CCN(C)CC2)c1Cl [Example 497, (2R)-2-{[6-(1-benzothiophen-2-yl)-(5Sa)-5-{3-chloro-2-methyl-4-[2-(4-methylpiperazin-1-yl)ethoxy]phenyl}thieno[2,3-d]pyrimidin-4-yl]oxy}-3-phenylpropanoic acid] | 5.95 | 9.1e-07 | 
20 | Cc1ccc(-c2sc3ncnc(OC(Cc4ccccc4)C(=O)O)c3c2-c2ccc(OCCN3CCN(C)CC3)c(Cl)c2C)o1 [Example 499, (2R)-2-{[(5Sa)-5-{3-chloro-2-methyl-4-[2-(4-methylpiperazin-1-yl)ethoxy]phenyl}-6-(5-methylfuran-2-yl)thieno[2,3-d]pyrimidin-4-yl]oxy}-3-phenylpropanoic acid] | 1.5 | 1e-07 | 
21 | Cc1ccc(-c2sc3ncnc(O[C@H](Cc4ccccc4)C(=O)O)c3c2-c2ccc(OCCN3CCN(C)CC3)c(Cl)c2C)s1 [Example 500, (2R)-2-{[(5Sa)-5-{3-chloro-2-methyl-4-[2-(4-methylpiperazin-1-yl)ethoxy]phenyl}-6-(5-methylthiophen-2-yl)thieno[2,3-d]pyrimidin-4-yl]oxy}-3-phenylpropanoic acid] |  | 8e-08 | 2.25
22 | Cc1c(-c2c(-c3ccc(Cl)s3)sc3ncnc(OC(Cc4ccccc4)C(=O)O)c23)ccc(OCCN2CCN(C)CC2)c1Cl [Example 501, (2R)-2-{[(5Sa)-5-{3-chloro-2-methyl-4-[2-(4-methylpiperazin-1-yl)ethoxy]phenyl}-6-(5-chlorothiophen-2-yl)thieno[2,3-d]pyrimidin-4-yl]oxy}-3-phenylpropanoic acid] | 2.84 | 2.8e-07 | 
